Measurements: PMC8748916, “Microbial enzymes induce colitis by reactivating triclosan in the mouse gastrointestinal tract” (Nature Communications, 2022)
Values joined by “and” are separate entries in the source; they are usually repeats but may differ in a detail not shown here. Equal entries are not always repeated. Where two headings read alike, the source gives them in different places.

How the values were obtained:
[1] = tested on: gut microbial β-glucuronidase (GUS) enzymes; assay: In vitro UDH (coupled) assay of TCS-G cleavage by a panel of 32 purified GUS enzymes; assay type: biochemical
[2] = LC-MS/MS profiling of TCS metabolism in mice (TCS via diet for 4 weeks); conditions: for concentration of TCS, TCS-G, TCS-Sulfate: individual mice

For O=C(O)C1OC(Oc2cc(Cl)ccc2Oc2ccc(Cl)cc2Cl)C(O)C(O)C1O (stereo not shown) [TCS-G, triclosan-glucuronide], the Rate [1] was 0.1092 µM/s and 0.1031 µM/s and 0.1177 µM/s, the Rate ([1]; GUS: Akkermansia muciniphila, Fig. 3a, replicates 1-3) was 0.0108 µM/s and 0.0181 µM/s and 0.0194 µM/s and the Rate ([1]; GUS: Akkermansia sp. CAG:344, Fig. 3a, replicates 1-3) was 0.0157 µM/s and 0.0151 µM/s and 0.0237 µM/s. The Rate ([1]; GUS: Bacteroides MSP (BMSP), Fig. 3a, replicates 1-3) was 0.0000 µM/s and 0.0073 µM/s and 0.0072 µM/s, the Rate ([1]; GUS: Bacteroides coprocola CAG: 126, Fig. 3a, replicates 1-3) was 0.0000 uM/s (2×) and 0.0056 uM/s and the Rate ([1]; GUS: Bacteroides dorei, Fig. 3a, replicates 1-3) was 0.0000 µM/s. For the same compound, the Rate ([1]; GUS: Bacteroides fragillis (1, mini loop), Fig. 3a, replicates 1-3) was 0.0000 uM/s (2×) and 0.0043 uM/s, the Rate ([1]; GUS: Bacteroides fragillis (2, No Loop), Fig. 3a, replicates 1-3) was 0.0228 µM/s and 0.0242 µM/s and 0.0201 µM/s and the Rate ([1]; GUS: Bacteroides ovatus 1 (Double mini loop), Fig. 3a, replicates 1-3) was 0.0000 µM/s and 0.0060 µM/s and 0.0033 µM/s. The Rate ([1]; GUS: Bacteroides ovatus 2 (loop 2), Fig. 3a, replicates 1-3) was 0.0287 µM/s and 0.0311 µM/s and 0.0066 µM/s, the Rate ([1]; GUS: Bacteroides uniformis 1, Fig. 3a, replicates 1-3) was 0.0000 µM/s and the Rate ([1]; GUS: Bacteroides uniformis 2, Fig. 3a, replicates 1-3) was 0.0217 µM/s and 0.0464 µM/s and 0.0098 µM/s. The Rate ([1]; GUS: Bacteroides uniformis 3, Fig. 3a, replicates 1-3) was 0.0000 µM/s, the Rate ([1]; GUS: Clostridiales sp., Fig. 3a, replicates 1-3) was 0.2137 µM/s and 0.2298 µM/s and 0.2970 µM/s and the Rate ([1]; GUS: Escherichia coli, Fig. 3a, replicates 1-3) was 0.0775 µM/s and 0.0865 µM/s and 0.0858 µM/s. For the same compound, the Rate ([1]; GUS: Eubacterium eligens, Fig. 3a, replicates 1-3) was 0.1302 µM/s and 0.1403 µM/s and 0.1746 µM/s, the Rate ([1]; GUS: Eubacterium sp. CAG: 76, Fig. 3a, replicates 1-3) was 0.2371 µM/s and 0.2156 µM/s and 0.2776 µM/s and the Rate ([1]; GUS: Faecalibacterium prausnitzii 2-L1, Fig. 3a, replicates 1-3) was 0.4231 µM/s and 0.3684 µM/s and 0.3821 µM/s. The Rate ([1]; GUS: Faecalibacterium prausnitzii L2-6, Fig. 3a, replicates 1-3) was 0.2237 µM/s and 0.2529 µM/s and 0.1639 µM/s, the Rate ([1]; GUS: Faecalibacterium prausnitzii, Fig. 3a, replicates 1-3) was 0.1749 µM/s and 0.1228 µM/s and 0.2576 µM/s and the Rate ([1]; GUS: Fusicatenibacter saccharivorans, Fig. 3a, replicates 1-3) was 0.0089 µM/s and 0.0000 µM/s and 0.0052 µM/s. The Rate ([1]; GUS: H11G11, Fig. 3a, replicates 1-3) was 0.0684 µM/s and 0.0777 µM/s and 0.0864 µM/s, the Rate ([1]; GUS: Lactobacillus rhamnosus, Fig. 3a, replicates 1-3) was 0.0323 µM/s and 0.1224 µM/s and 0.1254 µM/s and the Rate ([1]; GUS: Parabacteroides merdea, Fig. 3a, replicates 1-3) was 0.0043 µM/s and 0.0011 µM/s and 0.0000 µM/s. For the same compound, the Rate ([1]; GUS: Roseburia hominis 2, Fig. 3a, replicates 1-3) was 0.0519 µM/s and 0.0527 µM/s and 0.0448 µM/s, the Rate ([1]; GUS: Roseburia hominis 3, Fig. 3a, replicates 1-3) was 0.4975 µM/s and 0.4668 µM/s and 0.4395 µM/s and the Rate ([1]; GUS: Roseburia hominis, Fig. 3a, replicates 1-3) was 0.0330 µM/s and 0.0266 µM/s and 0.0438 µM/s. For the same compound, the Rate ([1]; GUS: Roseburia intestinalis, Fig. 3a, replicates 1-3) was 0.0269 µM/s and 0.0251 µM/s and 0.0293 µM/s, the Rate ([1]; GUS: Roseburia inulinvorans, Fig. 3a, replicates 1-3) was 0.1707 µM/s and 0.1889 µM/s and 0.1974 µM/s and the Rate ([1]; GUS: Ruminoccus gnavus 1, Fig. 3a, replicates 1-3) was 0.0272 µM/s and 0.0287 µM/s and 0.0319 µM/s. The Rate ([1]; GUS: Ruminoccus gnavus 3, Fig. 3a, replicates 1-3) was 0.1417 µM/s and 0.1517 µM/s and 0.1712 µM/s, the Rate ([1]; GUS: Streptococcus agalactiae, Fig. 3a, replicates 1-3) was 0.0757 µM/s and 0.0745 µM/s and 0.0702 µM/s and the “concentration of TCS, TCS-G, TCS-Sulfate” value ([2]; Cecum (digesta), 80 ppm TCS via diet 4 weeks) was 0.45 pmol/mg and 0.99 pmol/mg and 0.44 pmol/mg and 0.88 pmol/mg and 0.62 pmol/mg and 0.91 pmol/mg. For the same compound, the “concentration of TCS, TCS-G, TCS-Sulfate” value ([2]; Colon digesta, 1 ppm TCS in diet 4 weeks) was 0 pmol/mg, the “concentration of TCS, TCS-G, TCS-Sulfate” value ([2]; Colon digesta, 10 ppm TCS in diet 4 weeks) was 0.02 pmol/mg and the “concentration of TCS, TCS-G, TCS-Sulfate” value ([2]; Colon digesta, 80 ppm TCS in diet 4 weeks) was 0.1 pmol/mg. For the same compound, the “concentration of TCS, TCS-G, TCS-Sulfate” value ([2]; Feces, 1 ppm TCS in diet 4 weeks) was 0.06 pmol/mg, the “concentration of TCS, TCS-G, TCS-Sulfate” value ([2]; Feces, 10 ppm TCS in diet 4 weeks) was 0.13 pmol/mg and the “concentration of TCS, TCS-G, TCS-Sulfate” value ([2]; Feces, 80 ppm TCS in diet 4 weeks) was 0.35 pmol/mg and 0.43 pmol/mg. The “concentration of TCS, TCS-G, TCS-Sulfate” value ([2]; Heart, 80 ppm TCS via diet 4 weeks) was 2.11 pmol/mg and 1.13 pmol/mg and 0.90 pmol/mg and 1.39 pmol/mg, the “concentration of TCS, TCS-G, TCS-Sulfate” value ([2]; SI 1st section (digesta), 80 ppm TCS via diet 4 weeks) was 14.84 pmol/mg and 26.51 pmol/mg and 44.77 pmol/mg and 37.15 pmol/mg and the “concentration of TCS, TCS-G, TCS-Sulfate” value ([2]; SI 2nd section (digesta), 80 ppm TCS via diet 4 weeks) was 56.00 pmol/mg and 24.46 pmol/mg and 19.60 pmol/mg and 25.12 pmol/mg and 26.25 pmol/mg and 17.70 pmol/mg and 32.78 pmol/mg and 21.27 pmol/mg and 57.45 pmol/mg and 7.43 pmol/mg. For the same compound, the “concentration of TCS, TCS-G, TCS-Sulfate” value ([2]; SI 3rd section (digesta), 80 ppm TCS via diet 4 weeks) was 27.59 pmol/mg and 32.96 pmol/mg and 20.86 pmol/mg and 36.42 pmol/mg and 26.32 pmol/mg and 29.79 pmol/mg and 32.41 pmol/mg and 48.40 pmol/mg and 60.13 pmol/mg and 35.24 pmol/mg, the “concentration of TCS, TCS-G, TCS-Sulfate” value ([2]; SI 4th section (digesta), 80 ppm TCS via diet 4 weeks) was 46.08 pmol/mg and 59.25 pmol/mg and 48.99 pmol/mg and 79.17 pmol/mg and 94.49 pmol/mg and 43.76 pmol/mg and 46.26 pmol/mg and 23.11 pmol/mg and 8.33 pmol/mg and 51.24 pmol/mg and the “share of TCS metabolites found” value ([2]; digesta of the 4th section of the mouse small intestine, 80 ppm TCS via diet 4 weeks) was 55.4%. The “share of TCS metabolites found” value ([2]; fecal content, 80 ppm TCS via diet 4 weeks) was 0.7%.
